For experiment [1], the target named is T1, human EGFR (Homo sapiens, UniProt P00533).
T1 construct: human EGFR (His672-Ala1210); purchased Cell Signaling Technologies; host or cells: baculovirus expression system
The experiment is described as follows: EGFR kinase assay (HTScan EGF Receptor Kinase Assay Kit, DELFIA). The experiment is classed as biochemical. The following applies: 200 μM ATP. The protocol:
(e) An In Vitro Assay which Determines the Ability of a Test Compound to Inhibit EGFR Kinase.
The ability of compounds to inhibit receptor kinase (EGFR) activity was assayed using HTScan™ EGF Receptor Kinase Assay Kits (Cell Signaling Technologies, Danvers, Mass.). EGFR tyrosine kinase was obtained as GST-kinase fusion protein which was produced using a baculovirus expression system with a construct expressing human EGFR (His672-Ala1210) (GenBank Accession No. NM_005228) with an amino-terminal GST tag. The protein was purified by one-step affinity chromatography using glutathione-agarose. An anti-phosphotyrosine monoclonal antibody, P-Tyr-100, was used to detect phosphorylation of biotinylated substrate peptides (EGFR), Biotin-PTP1B (Tyr66). Enzymatic activity was tested in 60 mM HEPES, 5 mM MgCl2 5 mM MnCl2 200 μM ATP, 1.25 mM DTT, 3 μM Na3VO4, 1.5 mM peptide, and 50 ng EGF Receptor Kinase. Bound antibody was detected using the DELFIA system (PerkinElmer, Wellesley, Mass.) consisting of DELFIA® Europium-labeled Anti-mouse IgG (PerkinElmer, #AD0124), DELFIA® Enhancement Solution (PerkinElmer, #1244-105), and a DELFIA® Streptavidin coated, 96-well Plate (PerkinElmer, AAAND-0005). Fluorescence was measured on a WALLAC Victor 2 plate reader and reported as relative fluorescence units (RFU). Data were plotted using GraphPad Prism (v4.0a) and IC50's calculated using a sigmoidal dose response curve fitting algorithm.
Test compounds were dissolved in dimethylsulfoxide (DMSO) to give a 20 mM working stock concentration. Each assay was setup as follows: Added 100 μl of 10 mM ATP to 1.25 ml 6 mM substrate peptide. Diluted the mixture with dH2O to 2.5 ml to make 2×ATP/substrate cocktail ([ATP]=[…], [substrate]=3 mM). Immediately transfer enzyme from −80° C. to ice. Allowed enzyme to thaw on ice. Microcentrifuged briefly at 4° C. to bring liquid to the bottom of the vial. Returned immediately to ice. Added 10 μl of DTT (1.25 mM) to 2.5 ml of 4× HTScan™ Tyrosine Kinase Buffer (240 mM HEPES pH 7.5, 20 mM MgCl2, 20 mM MnCl, 12 mM NaVO3) to make DTT/Kinase buffer. Transfer 1.25 ml of DTT/Kinase buffer to enzyme tube to make 4× reaction cocktail ([enzyme]=4 ng/μL in 4× reaction cocktail). Incubated 12.5 μl of the 4× reaction cocktail with 12.5 μl/well of prediluted compound of interest (usually around 10 μM) for 5 minutes at room temperature. Added 25 μl of 2×ATP/substrate cocktail to 25 μl/well preincubated reaction cocktail/compound. Incubated reaction plate at room temperature for 30 minutes. Added 50 μl/well Stop Buffer (50 mM EDTA, pH 8) to stop the reaction. Transferred 25 μl of each reaction and 75 μl dH2O/well to a 96-well streptavidin-coated plate and incubated at room temperature for 60 minutes. Washed three times with 200 μl/well PBS/T (PBS, 0.05% Tween-20). Diluted primary antibody, Phospho-Tyrosine mAb (P-Tyr-100), 1:1000 in PBS/T with 1% bovine serum albumin (BSA). Added 100 μl/well primary antibody. Incubated at room temperature for 60 minutes. Washed three times with 200 μl/well PBS/T. Diluted Europium labeled anti-mouse IgG 1:500 in PBS/T with 1% BSA. Added 100 μl/well diluted antibody. Incubated at room temperature for 30 minutes. Washed five times with 200 μl/well PBS/T. Added 100 μl/well DELFIA® Enhancement Solution. Incubated at room temperature for 5 minutes. Detected 615 nm fluorescence emission with appropriate Time-Resolved Plate Reader.

The target of experiment [2] is T2, human PDGFR-beta (Homo sapiens, UniProt P09619).
T2 construct: fragment (amino acids 558-1106) amino-terminally fused to 6-histidine; 6xHis (N); made in house
Kind of experiment: PDGFR-beta radioisotope kinase assay. It is filed as biochemical. Particulars: 100 μM ATP; for IC50: read-out: PDGFRb IC50. The protocol:
(a) An In Vitro Assay which-Determines the Ability of a Test Compound to Inhibit a Receptor Tyrosine Kinase.
The ability of compounds to inhibit receptor kinase (VEGFR2 and PDGFR-beta) activity was assayed using standard radioisotope assay for kinase. […] The proteins were purified using Ni2+/NTA agarose affinity column to purity
For PDGFR-beta assay, p33 ATP tracers were incubated with purified recombinant PDGFR-beta kinase to monitor the enzyme activity. In this assay, reactions were carried out in the presence of 0.4 mg/ml PDGFR-beta kinase and 200 nM of Abl peptide substrate ([…]). The reaction was carried out at 30° C. for 120 minutes in a final assay condition contained 20 mM Tris-HCl, pH 7.5, 100 mM NaCl, 0.05 mM EDTA, 0.05% NP-40, 1 mM DTT 50% glycerol and 100 μM ATP. An equal volume of 25% TCA was added to stop the reaction and precipitate the labeled peptides. Precipitated proteins were trapped onto glass fiber B filterplates and excess unlabeled p33 ATP was washed off. The plates were allowed to air-dry prior to the addition of 30 uL/well of Packard Microscint 20. The amount of incorporated isotope was measured using a Perkin Elmer TopCount plate reader. Different concentrations of compounds were added to reaction to assess the activity of compounds to inhibit PDGF-beta kinase. IC50 was calculated using Prism software with sigmoidal dose-response curve fitting.

The structures appear in SMILES notation.

T1 sequence (P00533 672-1210): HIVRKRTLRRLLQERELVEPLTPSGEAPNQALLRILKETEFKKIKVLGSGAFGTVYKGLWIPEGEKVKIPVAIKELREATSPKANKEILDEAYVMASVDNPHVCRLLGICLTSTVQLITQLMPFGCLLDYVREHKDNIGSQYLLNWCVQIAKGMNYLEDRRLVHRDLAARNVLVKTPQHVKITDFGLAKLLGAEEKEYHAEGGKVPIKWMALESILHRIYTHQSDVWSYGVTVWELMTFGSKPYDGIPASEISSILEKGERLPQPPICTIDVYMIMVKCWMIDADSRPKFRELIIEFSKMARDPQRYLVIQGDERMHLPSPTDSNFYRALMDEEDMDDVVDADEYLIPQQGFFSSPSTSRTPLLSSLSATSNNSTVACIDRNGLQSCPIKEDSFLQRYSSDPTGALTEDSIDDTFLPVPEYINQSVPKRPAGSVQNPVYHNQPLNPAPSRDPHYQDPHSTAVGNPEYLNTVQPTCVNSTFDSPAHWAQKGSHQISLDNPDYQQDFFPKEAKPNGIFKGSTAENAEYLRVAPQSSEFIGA
T2 sequence (P09619 558-1106): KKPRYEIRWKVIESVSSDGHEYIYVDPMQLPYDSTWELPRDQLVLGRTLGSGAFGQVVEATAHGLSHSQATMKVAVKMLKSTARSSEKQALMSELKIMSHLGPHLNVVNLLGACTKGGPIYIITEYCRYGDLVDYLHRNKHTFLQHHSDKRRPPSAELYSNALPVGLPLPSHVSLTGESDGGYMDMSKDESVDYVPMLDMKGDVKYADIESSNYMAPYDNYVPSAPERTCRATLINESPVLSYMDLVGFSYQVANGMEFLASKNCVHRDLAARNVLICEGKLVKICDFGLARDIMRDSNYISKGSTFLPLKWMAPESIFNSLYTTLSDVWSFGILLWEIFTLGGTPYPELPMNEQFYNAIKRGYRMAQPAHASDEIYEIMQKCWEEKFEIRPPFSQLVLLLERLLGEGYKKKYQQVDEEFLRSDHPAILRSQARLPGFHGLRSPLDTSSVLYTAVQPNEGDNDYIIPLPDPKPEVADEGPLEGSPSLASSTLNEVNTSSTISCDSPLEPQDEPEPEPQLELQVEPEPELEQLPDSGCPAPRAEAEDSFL

Regarding `COc1cc2ncnc(Nc3ccc4occc4c3)c2cc1OCCCCCCC(=O)NO` [Compound 2, 7-(4-(benzofuran-5-ylamino)-7-methoxyquinazolin-6-yloxy)-N-hydroxyheptanamide], the IC50 (as a rule, the concentration that inhibits the measured activity by half) in experiment [1] was < 100 nM. For `COc1cc2c(Oc3ccc4[nH]c(C)cc4c3F)ncnc2cc1OCCCCCC(=O)NO` [Compound 10, 6-(4-(4-fluoro-2-methyl-1H-indol-5-yloxy)-6-methoxyquinazolin-7-yloxy)-N-hydroxyhexanamide], the IC50 in experiment [1] lay within 100 to 1000 nM. On to `COc1cc2c(Oc3ccc4[nH]c(C)cc4c3F)ncnc2cc1OCCCCCCC(=O)NO` [Compound 11, 7-(4-(4-fluoro-2-methyl-1H-indol-5-yloxy)-6-methoxyquinazolin-7-yloxy)-N-hydroxyheptanamide], for which the IC50 in experiment [1] was in the range of 1000 to 10000 nM. Also, in experiment [2], the “PDGFRb IC50” value is “Inactive”. `COc1cc2c(Nc3ccc4[nH]c(C)cc4c3F)ncnc2cc1OCCCCCC(=O)NO` [Compound 13, 6-(4-(4-fluoro-2-methyl-1H-indol-5-ylamino)-6-methoxyquinazolin-7-yloxy)-N-hydroxyhexanamide]: the IC50 in experiment [1] is 100 to 1000 nM; in experiment [2] it was 1000 to 10000 nM. With `COc1cc2c(Nc3ccc4[nH]c(C)cc4c3F)ncnc2cc1OCCCCCCC(=O)NO` [Compound 14, 7-(4-(4-fluoro-2-methyl-1H-indol-5-ylamino)-6-methoxy-quinazolin-7-yloxy)-N-hydroxyheptanamide], the IC50 was < 100 nM in experiment [1] and > 10000 nM in experiment [2]. The molecule `Cc1cc2c(F)c(Oc3ncnc4cc(OCCCN5CCCC5)c(OCCCCCC(=O)NO)cc34)ccc2[nH]1` [Compound 16, 6-(4-(4-fluoro-2-methyl-1H-indol-5-yloxy)-7-(3-(pyrrolidin-1-yl)propoxy)quinazolin-6-yloxy)-N-hydroxyhexanamide] returned an IC50 in experiment [1] of 1000 to 10000 nM. For `Cc1cc2c(F)c(Oc3ncnc4cc(OCCCN5CCCC5)c(OCCCCCCC(=O)NO)cc34)ccc2[nH]1` [Compound 17], the IC50 in experiment [1] is 1000 to 10000 nM. Still for that read-out and setting: the value for `Cc1cc2c(F)c(Nc3ncnc4cc(OCCCN5CCCC5)c(OCCCCC(=O)NO)cc34)ccc2[nH]1` [Compound 18, 5-(4-(4-fluoro-2-methyl-1H-indol-5-ylamino)-7-(3-(pyrrolidin-1-yl)propoxy)quinazolin-6-yloxy)-N-hydroxypentanamide] was 100 to 1000 nM.

In the case of `Cc1cc2c(F)c(Nc3ncnc4cc(OCCCN5CCCC5)c(OCCCCCC(=O)NO)cc34)ccc2[nH]1` [Compound 19, 6-(4-(4-Fluoro-2-methyl-1H-indol-5-ylamino)-7-(3-(pyrrolidin-1-yl)propoxy)quinazolin-6-yloxy)-N-hydroxyhexanamide], the IC50 in experiment [1] is < 100 nM.

In the case of `Cc1cc2c(F)c(Nc3ncnc4cc(OCCCN5CCCC5)c(OCCCCCCC(=O)NO)cc34)ccc2[nH]1` [Compound 20, 7-(4-(4-Fluoro-2-methyl-1H-indol-5-ylamino)-7-(3-(pyrrolidin-1-yl)propoxy)quinazolin-6-yloxy)-N-hydroxyheptanamide], the IC50 in experiment [1] was 1000 to 10000 nM; in experiment [2], > 10000 nM.
